Assays:
Mtb H37Rv = settings: drug sensitive and resistant strains of Mtb H37Rv; cited from earlier work
M. bovis BCG = assay type: cell-based, Mycobacterium bovis BCG

Compound | decrease in BDQ MIC caused by VP (Mtb H37Rv) [fold] | spontaneous mutation frequency (M. bovis BCG)
COc1ccc(CCN(C)CCCC(C#N)(c2ccc(OC)c(OC)c2)C(C)C)cc1OC (centres unmarked) [VP, verapamil, reference compound] | 20 | –
CCCCCCCCC(C#N)(CCCN(C)CCc1ccc(OC)c(OC)c1)c1ccc(OC)c(OC)c1 (centres unmarked) [PhA2] | – | < 10^−9 /CFU

— PMC12281142, “A potent phenylalkylamine disrupts mycobacterial membrane bioenergetics and augments bactericidal activity of bedaquiline” (iScience, 2025)
